Assay results reported in patent US4518413A, “Poly-phosphorodiamide urease inhibitors and urease inhibited urea based fertilizer compositions” (Allied Corporation, priority 1983, dated 1985).

test system: soil urease; test: Efficacy test: inhibition of urease-catalysed urea hydrolysis in soil (urea remaining after incubation); format: biochemical; details: New York soil (Cazenovia silt loam, pH 7.2); 800 micrograms test compound and 42.8 mg urea per 20 g air-dry soil; incubated at 25° C. for three days; run in triplicate
Method: Efficacy tests were conducted to evaluate the efficacy of certain representative poly-phosphorodiamide compounds as urease inhibitors. The inhibition tests were run in a New York soil (Cazenovia silt loam, pH 7.2). Evaluations (run in triplicate) consisted of applying 800 micrograms of the test compound in 5 mL of water and 42.8 mg of urea in 1 mL of water to 20 g of air-dry soil in a glass bottle. The bottle was capped with perforated aluminum foil and incubated at 25° C. for three days prior to extraction with 100 mL of a 2M KCl solution containing 0.5 mg of phenylmercuric acetate. The extracts were then analyzed for remaining urea using an autoanalyzer. Percent inhibition was calculated as [formula] where A is urea recovered from unincubated sample (urea added to soil and immediately extracted); B is urea recovered from inhibited sample; and C is urea recovered from the control (uninhibited sample).

Row | Compound | % Inhibition [%]
1 | CC1(NP(N)(N)=O)CCC(C(C)(C)NP(N)(N)=O)CC1 (stereo not drawn) [N,N'-Bis-(diaminophosphinyl)-1,8-diamino-p-menthane] | 84
2 | NP(N)(=O)N1CCN(P(N)(N)=O)CC1 [N,N'Bis-diaminophosphinyl-piperazine, N,N'-Bis-(diaminophosphinyl)piperazine] | 76
3 | NP(N)(=O)NCCCCCCNP(N)(N)=O [N,N'-Bis-(diaminophosphinyl)-1,6-diaminohexane] | 86
4 | NP(N)(=O)Oc1ccc(OP(N)(N)=O)cc1 [Phosphorodiamidic Acid 1,4-Phenylene Ester] | 90
5 | CC(C)(c1ccc(OP(N)(N)=O)cc1)c1ccc(OP(N)(N)=O)cc1 [Phosphorodiamidic Acid (1-Methylethylidene)-di-4,1-PhenyleneEster] | 70
6 | NP(N)(=O)Oc1cccc(OP(N)(N)=O)c1 [Phosphorodiamidic Acid 1,3-Phenylene Ester] | 81
